Assay results reported in ChEMBL document CHEMBL3621049, “Imidazole derivatives show anticancer potential by inducing apoptosis and cellular senescence” (2014).
Active and inactive are the calls of the source. The rule behind the calls is not given here.

Assays:
A549 [1] = assay: Growth inhibition of human A549/ATCC cells at 10 uM by sulforhodamine B assay; format: functional, cell-based
HOP-62 = assay: Growth inhibition of human HOP62 cells at 10 uM by sulforhodamine B assay; format: functional, cell-based
NCI-H322M = assay: Growth inhibition of human NCI-H322M cells at 10 uM by sulforhodamine B assay; format: functional, cell-based
NCI-H460 = assay: Growth inhibition of human NCI-H460 cells at 10 uM by sulforhodamine B assay; format: functional, cell-based
COLO 205 = assay: Growth inhibition of human COLO205 cells at 10 uM by sulforhodamine B assay; format: functional, cell-based
SW-620 = assay: Growth inhibition of human SW620 cells at 10 uM by sulforhodamine B assay; format: functional, cell-based
SF-268 = assay: Growth inhibition of human SF268 cells at 10 uM by sulforhodamine B assay; format: functional, cell-based
SNB-19 = assay: Growth inhibition of human SNB19 cells at 10 uM by sulforhodamine B assay; format: functional, cell-based
M14 = assay: Growth inhibition of human M14 cells at 10 uM by sulforhodamine B assay; format: functional, cell-based
OVCAR-3 = assay: Growth inhibition of human OVCAR3 cells at 10 uM by sulforhodamine B assay; format: functional, cell-based
OVCAR-5 = assay: Growth inhibition of human OVCAR5 cells at 10 uM by sulforhodamine B assay; format: functional, cell-based
SK-OV-3 = assay: Growth inhibition of human SKOV3 cells at 10 uM by sulforhodamine B assay; format: functional, cell-based
A498 = assay: Growth inhibition of human A498 cells at 10 uM by sulforhodamine B assay; format: functional, cell-based
SN12C = assay: Growth inhibition of human SN12C cells at 10 uM by sulforhodamine B assay; format: functional, cell-based
UO-31 = assay: Growth inhibition of human UO31 cells at 10 uM by sulforhodamine B assay; format: functional, cell-based
DU-145 = assay: Growth inhibition of human DU145 cells at 10 uM by sulforhodamine B assay; format: functional, cell-based
MDA-MB-231 = assay: Growth inhibition of human MDA-MB-231 cells at 10 uM by sulforhodamine B assay; format: functional, cell-based
BT-549 = assay: Growth inhibition of human BT549 cells at 10 uM by sulforhodamine B assay; format: functional, cell-based
Malme-3M = assay: Growth inhibition of human MALME-3M cells at 10 uM by sulforhodamine B assay; format: functional, cell-based
A549 [2] = assay: Induction of morphological changes in human A549 cells at 10 to 50 uM; format: functional, cell-based
A549 [3] = assay: Cytotoxicity against human A549 cells assessed as decrease in cell viability at 10 uM after 24 hrs by MTT assay relative to control; format: functional
A549 [4] = assay: Inhibition of colony formation in human A549 cells after 14 days using crystal violet staining by soft agar assay; format: functional, cell-based
A549 [5] = assay: Inhibition of colony formation in human A549 cells assessed as change in colony morphology after 14 days using crystal violet staining by soft agar assay; format: functional, cell-based
A549 [6] = assay: Inhibition of cell migration in human A549 cells assessed as cells migrating into scratch area after 24 hrs by wound healing assay; format: functional, cell-based
A549 [7] = assay: Cell cycle arrest in human A549 cells assessed as accumulation at sub-G1 phase at 5 uM after 48 hrs using propidium iodide staining by flow cytometer analysis (reference value: 0.96%); format: functional
A549 [8] = assay: Cell cycle arrest in human A549 cells assessed as accumulation at G0/G1 phase at 5 uM after 48 hrs using propidium iodide staining by flow cytometer analysis (reference value: 79.34%); format: functional
A549 [9] = assay: Cell cycle arrest in human A549 cells assessed as accumulation at G0/G1 phase at 20 uM after 48 hrs using propidium iodide staining by flow cytometer analysis (reference value: 79.34%); format: functional
A549 [10] = assay: Cell cycle arrest in human A549 cells assessed as accumulation at S phase at 20 uM after 48 hrs using propidium iodide staining by flow cytometer analysis (reference value: 6.67%); format: functional
A549 [11] = assay: Induction of apoptosis in human A549 cells assessed as activation of caspase; format: functional, cell-based

COc1ccc(-c2nc(-c3ccccn3)c(-c3ccccn3)n2CC(C)C)cc1OC1CCCC1
growth inhibition (GI) (A549 [1]): Active | growth inhibition (GI) (HOP-62): Active | growth inhibition (GI) (NCI-H322M): Active | growth inhibition (GI) (NCI-H460): Active | growth inhibition (GI) (COLO 205): Active | growth inhibition (GI) (SW-620): Active | growth inhibition (GI) (SF-268): Active | growth inhibition (GI) (SNB-19): Active | growth inhibition (GI) (M14): Active | growth inhibition (GI) (OVCAR-3): Active | growth inhibition (GI) (OVCAR-5): Active | growth inhibition (GI) (SK-OV-3): Active | growth inhibition (GI) (A498): Active | growth inhibition (GI) (SN12C): Active | growth inhibition (GI) (UO-31): Active | growth inhibition (GI) (DU-145): Active | growth inhibition (GI) (MDA-MB-231): Active | growth inhibition (GI) (BT-549): Active | growth inhibition (GI) (Malme-3M): Active | Activity (A549 [2]): Active | fold change (FC) (A549 [3]): 2 | inhibition (A549 [4]): Dose-dependent effect | inhibition (A549 [5]): Active | inhibition (A549 [6]): Dose-dependent effect | Activity (A549 [7]): 2.49% | Activity (A549 [8]): 89.38% | Activity (A549 [9]): 69.52% | Activity (A549 [10]): 6.63% | Activity (A549 [11]): inactive
